Experimental data: patent US7585850B2 (Adenobio N.V., priority 2005, dated 2009)

Legend:
normotensive Wistar rats [1] = experiment: Effect of oral and IV 330A1 on blood pressure of normotensive Wistar rats; assay type: in vivo, rat
Procedure: (§1) The experiment was performed in 10 male Wistar rats (340 to 410 g; 5 in the treated group and 5 in the control group). Animals were maintained for two weeks of adaptation in humidity and temperature controlled room and were fed a standard diet (U.A.R, Villemoisson, France). Each animal, (control or treated) was anaesthetized with sodium pentobarbital (6%, 0.9 ml/Kg body weight). The left carotid artery was cannulated with a PE50 polyethylene catheter connected to a pressure transducer (MacLabs, ADInstruments, Hastings, UK). Blood pressure was monitored continuously and recorded. Adb011 was administered orally by gavage at the dose of 50 mg/kg (in Arabic syrup 5%).
(§2) The experiment is similar to example 3.
• 330A1-I (n=4): receiving by gavage the product (50 mg/kg in suspension with Arabic syrup 30 mg/ml) • Control-(n=4)I: receiving by gavage Arabic syrup 30 mg/ml alone • 330A1-II: receiving the product IV (10 mg/kg in suspension with distilled water 30 mg/ml) • Control-II (n=4): receiving IV distilled water

[2] = in vivo; cited from earlier work
normotensive Wistar rats [3] = experiment: Effect of oral Adb111 (AMP complex) on blood pressure of normotensive Wistar rats and comparison with AMP; assay type: in vivo, rat
Procedure: as §1, with “Adb011 was administered orally by gavage at the dose of 50 mg/kg (in Arabic syrup 5%).” left out
as §2

hypoxic rats = experiment: Effect of oral Adb011 on chronic pulmonary hypertension caused by hypoxia in rats; assay type: in vivo, rat
Procedure: Animals were divided in three groups: • Adb-011 chronic treatment (n=5): receiving by gavage Adb-011 (50 mg/kg in suspension with Arabic syrup, 20 mg/ml) twice a day (morning and evening) for 14 days. • Control (n=6): receiving by gavage vehicle (suspension of Arabic syrup 20 mg/kg). • Adb-011 acute treatment (n=6): receiving by gavage vehicle for 14 days and orally treated with a single dose of Adb-011 on the last day (day of surgery). Rats were placed in a chamber where air was circulated at a pressure of 380 Torr, which corresponds to an altitude of 5500 meters. The chamber was open twice a day for ˜30 minutes to treat animals and to replace food and water. On the day of surgery the animals were removed from the chamber and anesthetized with pentobarbital sodium (60 mg/kg ip). A polyethylene catheter (PE-50) was placed in the aortic arch via the left carotid artery. An introducer was advanced in the right ventricle via the right jugular vein. Adequate placement of both catheters was established by the pressure waveform. Both catheters were connected to a pressure transducer (Biopac MP30, BIOPAC Systems, Inc.). The time-lag between last dose of Adb-011 (in group 1) and blood pressure measurement was 14 hours.

normotensive Wistar rats [4] = experiment: Effect of oral administration of Adb011 on blood pressure of normotensive Wistar rats; assay type: in vivo, rat
Procedure: as §1
Results are reported as mean±SEM of n experiments. Multiple measurement analysis was performed using ANOVA, followed by Bonferroni-Dunn test. Statistical significance was accepted for p values less than 0.05.
Blood pressure began to decrease after 30 minutes of Adb-011 administration. It reached a significant maximal decrease of −13.9 mmHg between 70 and 100 min. (with respect to vehicle values, p<0.05 ANOVA multiple measurement analysis followed by a Bonferroni-Dunn test) and returned to normal after 110-120 minutes.

rats = experiment: Effects of Adb011 by the IV route on systemic arterial pressure in rats; assay type: in vivo, rat; conditions: 10 mg/kg IV bolus
Procedure: as §1, §2
• Adb-011 (n=4): receiving IV a bolus of Adb-011 (10 mg/kg in suspension with distilled water 30 mg/ml) • Control (n=3): receiving IV (distilled water)
In the treated group, blood pressure began to decrease after 15 min of the Adb011 administration and reached a significant maximal decrease of 48 mmHg at […].

[5] = in vivo; cited from earlier work; remark: listed apart in the source
[6] = oral administration, conclusion over doses
[7] = 50 mg/kg p.o. twice a day for 14 days, chronic hypoxia
[8] = HxC + A 15 min: single oral dose on day of surgery
[9] = HxC + A 60 min: single oral dose on day of surgery, 60 min

SMILES: CC(=O)Nc1ccc(C(=O)O)cc1.CC(O)CN(C)C [330A1]
- effect on mean arterial blood pressure (normotensive Wistar rats [1]; 10 mg/kg IV): minor effect
- effect on mean arterial blood pressure (normotensive Wistar rats [1]; 50 mg/kg by gavage): minor effect

SMILES: Nc1ncnc2c1ncn2[C@@H]1O[C@H](COP(=O)(O)O)[C@@H](O)[C@H]1O [AMP, adenosine monophosphate, reference compound]
- gastrointestinal bioavailability [2]: poor
- time after administration at which blood pressure began to decrease (normotensive Wistar rats [3]; 100 mg/kg by gavage): 45 min
- time after which blood pressure returned to normal values (normotensive Wistar rats [3]; 100 mg/kg by gavage): 120 min
- time after administration at which blood pressure began to decrease (normotensive Wistar rats [3]; 300 mg/kg by gavage): 45 min
- time after which blood pressure returned to normal values (normotensive Wistar rats [3]; 300 mg/kg by gavage): 120 min
- time for which blood pressure was lowered (normotensive Wistar rats [3]; [6]): 60 min

SMILES: CC(=O)Nc1ccc(C(=O)O)cc1.CC(=O)Nc1ccc(C(=O)O)cc1.CC(=O)Nc1ccc(C(=O)O)cc1.CC(O)CN(C)C.CC(O)CN(C)C.CC(O)CN(C)C.Nc1ncnc2c1ncn2[C@@H]1O[C@H](CO)[C@@H](O)[C@H]1O [Adb011]
- change of right ventricular hypertrophy (hypoxic rats; [7]): -75 mg
- decrease of pulmonary hypertension (hypoxic rats; [7]): 21.5 mmHg
- effect on systemic pressure (hypoxic rats; [7]): no effect
- RVp (right ventricular pressure) (hypoxic rats; HxA: chronic treatment 50 mg/kg p.o. twice a day 14 days, measured 14 h after last dose): 53.30 ± 461 mmHg
- (LV + S)w (left ventricular + septum weight) (hypoxic rats; HxA: chronic treatment 14 days): 729 ± 56
- C(a − v)O2 (arterial − venous O2 difference) (hypoxic rats; HxA: chronic treatment 14 days): 8.0 ± 0.4 mL O2/dL blood
- CaO2 (arterial O2 content) (hypoxic rats; HxA: chronic treatment 14 days): 29.2 ± 0.9 mL O2/dL of blood
- Cardiac output (hypoxic rats; HxA: chronic treatment 14 days): 162 ± 8 mL/min/kg
- CvO2 (venous O2 content) (hypoxic rats; HxA: chronic treatment 14 days): 21.2 ± 1.0 mL O2/dL of blood
- HR (heart rate) (hypoxic rats; HxA: chronic treatment 14 days): 364 ± 15 beat/min
- MABP (mean arterial blood pressure) (hypoxic rats; HxA: chronic treatment 14 days): 113 ± 2 mmHg
- RVw (right ventricular weight) (hypoxic rats; HxA: chronic treatment 14 days): 362 ± 10 mg
- SV (stroke volume) (hypoxic rats; HxA: chronic treatment 14 days): 0.45 ± 0.02 mL/kg
- SVR (systemic vascular resistance) (hypoxic rats; HxA: chronic treatment 14 days): 0.70 ± 0.03
- SaO2 (arterial oxygen saturation) (hypoxic rats; HxA: chronic treatment 14 days): 92 ± 1 %
- VO2 (oxygen consumption) (hypoxic rats; HxA: chronic treatment 14 days): 12.81 ± 0.29 mL/min/kg
- (LV + S)w (left ventricular + septum weight) (hypoxic rats; [8]): 675 ± 21
- C(a − v)O2 (arterial − venous O2 difference) (hypoxic rats; [8]): 8.3 ± 0.5 mL O2/dL blood
- CaO2 (arterial O2 content) (hypoxic rats; [8]): 27.3 ± 1.4 mL O2/dL of blood
- Cardiac output (hypoxic rats; [8]): 164 ± 11 mL/min/kg
- CvO2 (venous O2 content) (hypoxic rats; [8]): 19.0 ± 1.5 mL O2/dL of blood
- HR (heart rate) (hypoxic rats; [8]): 352 ± 12 beat/min
- MABP (mean arterial blood pressure) (hypoxic rats; [8]): 107 ± 5 mmHg
- RVw (right ventricular weight) (hypoxic rats; [8]): 436 ± 21 mg
- SV (stroke volume) (hypoxic rats; [8]): 0.47 ± 0.03 mL/kg
- SVR (systemic vascular resistance) (hypoxic rats; [8]): 0.68 ± 0.06
- SaO2 (arterial oxygen saturation) (hypoxic rats; [8]): 82 ± 4%
- VO2 (oxygen consumption) (hypoxic rats; [8]): 13.38 ± 0.61 mL/min/kg
- RVp (right ventricular pressure) (hypoxic rats; HxC + A 15 min: single oral dose on day of surgery, 15 min): 75.17 ± 0.95 mmHg
- HR (heart rate) (hypoxic rats; [9]): 329 ± 4 beat/min
- MABP (mean arterial blood pressure) (hypoxic rats; [9]): 92 ± 5 mmHg
- RVp (right ventricular pressure) (hypoxic rats; [9]): 52.83 ± 3.83 mmHg
- reduction of pulmonary artery pressure (hypoxic rats; acute single oral dose, rats with fixed pulmonary hypertension): −22 mmHg
- time after which blood pressure returned to normal (normotensive Wistar rats [4]; 50 mg/kg p.o.): 110 to 120 min
- time after administration at which blood pressure began to decrease (normotensive Wistar rats [4]; 50 mg/kg p.o. by gavage, anaesthetized rats): 30 min
- maximal decrease of blood pressure (normotensive Wistar rats [4]; 50 mg/kg p.o., with respect to vehicle values, p<0.05): −13.9 mmHg
- maximal decrease of blood pressure (rats): 48 mmHg
- mean arterial blood pressure two hours after injection (rats): still very low two hours after injection
- time after administration at which blood pressure began to decrease (rats): 15 min
- time of maximal decrease of blood pressure (rats): 15 min

SMILES: CC(=O)Nc1ccc(C(=O)O)cc1.CC(=O)Nc1ccc(C(=O)O)cc1.CC(=O)Nc1ccc(C(=O)O)cc1.CC(O)CN(C)C.CC(O)CN(C)C.CC(O)CN(C)C.Nc1ncnc2c1ncn2[C@@H]1O[C@H](COP(=O)(O)O)[C@@H](O)[C@H]1O [Adb111]
- time after administration at which blood pressure began to decrease (normotensive Wistar rats [3]; 100 mg/kg by gavage): 45 min
- time after which blood pressure returned to normal values (normotensive Wistar rats [3]; 100 mg/kg by gavage): 180 min
- time after administration at which blood pressure began to decrease (normotensive Wistar rats [3]; 300 mg/kg by gavage): 45 min
- time after which blood pressure returned to normal values (normotensive Wistar rats [3]; 300 mg/kg by gavage): 180 min
- time after oral administration at which blood pressure lowering began (normotensive Wistar rats [3]; [6]): 45 min
- time for which blood pressure was lowered (normotensive Wistar rats [3]; [6]): up to 165 min
- bioavailability and efficacy compared with natural AMP (normotensive Wistar rats [3]; oral, comparable doses): better bioavailabity and efficacy over natural AMP

SMILES: Nc1ncnc2c1ncn2[C@@H]1O[C@H](CO)[C@@H](O)[C@H]1O [adenosine]
- plasma half-life [5]: less than 5 seconds
